Values after ≈ are worked out from the molar mass of the structure shown.
What was measured:
Experiment in all cases: in vitro antibacterial activity, minimal inhibitory concentration
Format in all cases: cell-based
E. coli Brig = conditions: for MIC: Escherichia coli
From the text: (§1) The compounds of the invention are new chemical compounds that are used as pharmacological agents and especially as broad spectrum antibacterial agents. They are active in vitro against strains of both gram-positive and gram-negative bacteria.
(§2) Minimal Inhibitory Concentration (μg/ml)

E. coli Vogel = conditions: for MIC: Escherichia coli
From the text: as §1, §2

Entero. cloacae = conditions: for MIC: Enterobacter cloacae
From the text: as §1, §2

Klebs. pneu. = test system: Klebs. pneu.
From the text: as §1, §2

Prot. vulg. = test system: Prot. vulg.
From the text: as §1, §2

Pseudomonas #28 = conditions: Pseudomonas #28, in vitro; for MIC: read-out: Minimal Inhibitory Concentration
From the text: as §1, §2

Pseudomonas BRK 12-4-4 = conditions: Pseudomonas BRK 12-4-4, in vitro; for MIC: BRK1244
From the text: as §1, §2

Pseudomonas UI 18 = conditions: Pseudomonas UI 18, in vitro; for MIC: UI18
From the text: as §1, §2

Serr. marces. = test system: Serr. marces.
From the text: as §1, §2

Staph. aureus S18733 = conditions: for MIC: Staphylococcus aureus
From the text: as §1, §2

Staph. aureus UC-76 = conditions: Staph. aureus UC-76, in vitro; for MIC: Staphylococcus aureus, UC76
From the text: as §1, §2

Strep. fec. = test system: Strep. fec.
From the text: as §1, §2

| Structure (SMILES) | MIC (E. coli Brig) [µg/mL] | MIC (E. coli Vogel) [µg/mL] | MIC (Entero. cloacae) [µg/mL] | MIC (Klebs. pneu.) [µg/mL] | MIC (Prot. vulg.) [µg/mL] | MIC (Pseudomonas #28) [µg/mL] | MIC (Pseudomonas BRK 12-4-4) [µg/mL] | MIC (Pseudomonas UI 18) [µg/mL] | MIC (Serr. marces.) [µg/mL] | MIC (Staph. aureus S18733) [µg/mL] | MIC (Staph. aureus UC-76) [µg/mL] | MIC (Strep. fec.) [µg/mL] | other results |
| --- | --- | --- | --- | --- | --- | --- | --- | --- | --- | --- | --- | --- | --- |
| CC(=O)NC(C)C(=O)Nc1ccc(-c2ncc(C(=O)N[C@@H](C(=O)N[C@@H]3C(=O)N4C(C(=O)O)=C(COC(N)=O)CS[C@H]34)c3ccccc3)c(O)n2)cc1 (mixture of isomers) [Example 20, N-[2-[4-(N-Acetyl-DL-alanylamino)phenyl]-4-hydroxy-5-pyrimidinylcarbonyl]-7-[D-2-amino-2-phenylacetamido]-3-carbamoyloxymethyl-3-cephem-4-carboxylic acid] | 50 | 12.5 | > 50 | 25 | 25 | 6.3 | 12.5 | 6.3 | > 50 | 3.1 | 1.6 | > 50 |  |
| CC(=O)NC(CCC(N)=O)C(=O)Nc1ccc(-c2ncc(C(=O)N[C@@H](C(=O)NC3C(=O)N4C(C(=O)O)=C(CSc5nnnn5C)CSC34)c3ccccc3)c(O)n2)cc1 (mixture of isomers) [Example 23, N-[2-[4-(N-Acetyl-DL-glutaminylamino)phenyl]-4-hydroxy-5-pyrimidinylcarbonyl]-7-[D-2-amino-2-phenylacetamido]-3-[[1-methyl-1H-tetrazol-5-yl)thio]methyl]-3-cephem-4-carboxylic acid] | 3.1 | 0.8 | 6.3 | 3.1 | 12.5 | 6.3 | 12.5 | 6.3 | 50 | 12.5 | 3.1 | 50 |  |
| CC(=O)NC(C)C(=O)Nc1ccc(-c2ncc(C(=O)N[C@@H](C(=O)NC3C(=O)N4C(C(=O)O)=C(CSc5nnnn5C)CSC34)c3ccccc3)c(O)n2)cc1 (mixture of isomers) [Example 24, N-[2-[4-(N-Acetyl-DL-alanylamino)phenyl]-4-hydroxy-5-pyrimidinylcarbonyl]-7-[D-2-amino-2-phenylacetamido]-3-[[(1-methyl-1H-tetrazol-5-yl)thio]methyl]-3-cephem-4-carboxylic acid] | 12.5 | 3.1 | 12.5 | 1.6 | 25 | 6.3 | 12.5 | 6.3 | 50 | 3.1 | 1.6 | 50 |  |
| CC(=O)NC(C)C(=O)Nc1ccc(-c2ncc(C(=O)N[C@@H](C(=O)NC3C(=O)N4C(C(=O)O)=C(CSc5nnnn5C)CSC34)c3ccc(O)cc3)c(O)n2)cc1 (mixture of isomers) [Example 32, N-[2-[4-(N-Acetyl-DL-alanylamino)phenyl]-4-hydroxy-5-pyrimidinylcarbonyl]-7-[D-2-amino-2-(4-hydroxyphenyl)acetamido]-3-[[(1-methyl-1H-tetrazol-5-yl)thio]methyl]-3-cephem-4-carboxylic acid] | 6.3 | 1.6 | 6.3 | 1.6 | 12.5 | 3.1 | 6.3 | 6.3 | > 50 | 6.3 | 3.1 | 50 |  |
| CC(=O)NC(C)C(=O)Nc1ccc(-c2ncc(C(=O)N[C@@H](C(=O)NC3C(=O)N4C(C(=O)O)=C(CSc5nnnn5CC(=O)O)CSC34)c3ccccc3)c(O)n2)cc1 (mixture of isomers) [Example 35, N-[2-[4-(N-Acetyl-DL-alanylamino)phenyl]-4-hydroxy-5-pyrimidinylcarbonyl]-7-[D-2-phenylacetamido-3-[[(1-carboxymethyl-1H-tetrazol-5-yl)thio]methyl]-3-cephem-4-carboxylic acid] | 6.3 | 3.1 | 6.3 | 6.3 | 3.1 | 6.3 | 12.5 | 12.5 | 50 | 25 | 12.5 | > 50 |  |
| CC(=O)NC(C)C(=O)Nc1ccc(-c2ncc(C(=O)N[C@@H](C(=O)NC3C(=O)N4C(C(=O)O)=C(CSc5nnc(C)s5)CSC34)c3ccccc3)c(O)n2)cc1 (mixture of isomers) [Example 40, N-[2-[4-(N-Acetyl-DL-alanylamino)phenyl]-4-hydroxy-5-pyrimidinylcarbonyl]-7-[D-2-amino-2-phenylacetamido]-3-[[(5-methyl-1,3,4-thiadiazoyl-2-thio]methyl]-3-cephem-4-carboxylic acid] | 12.5 | 3.1 | 25 | 3.1 | 50 | 12.5 | 12.5 | 6.3 | 50 | 3.1 | 0.4 | 25 |  |
| CC(=O)N[C@H](C)C(=O)Nc1ccc(-c2ncc(C(=O)N[C@@H](C(=O)N[C@@H]3C(=O)N4C(C(=O)O)=C(COC(C)=O)CS[C@H]34)c3ccccc3)c(O)n2)cc1 [Example 1, N-[2-[4-(N-Acetyl-D-alanylamino)phenyl]-4-hydroxy-5-pyrimidinyl-carbonyl]-7-[D-2-amino-2-phenylacetamido]-3-acetoxymethyl-3-cephem-4-carboxylic acid] | 25 (≈ 34.2 µM) | 6.3 (≈ 8.61 µM) | 50 (≈ 68.3 µM) | 200 (≈ 273 µM) | 12.5 (≈ 17.1 µM) | 3.1 (≈ 4.24 µM) | 3.1 (≈ 4.24 µM) | 3.1 (≈ 4.24 µM) | 12.5 (≈ 17.1 µM) | 3.1 (≈ 4.24 µM) | 0.8 (≈ 1.09 µM) | 50 (≈ 68.3 µM) |  |
| CC(=O)NC(C)(C)C(=O)Nc1ccc(-c2ncc(C(=O)N[C@@H](C(=O)N[C@@H]3C(=O)N4C(C(=O)O)=C(COC(C)=O)CS[C@H]34)c3ccccc3)c(O)n2)cc1 [Example 2, N-[2-[4-(N-Acetyl-alpha-aminoisobutyrylamino)phenyl)-4-hydroxy-5-pyrimidinylcarbonyl]-7-[D-2-amino-2-phenylacetamido]-3-acetoxymethyl-3-cephem-4-carboxylic acid] | 50 (≈ 67 µM) | 25 (≈ 33.5 µM) | 50 (≈ 67 µM) | 25 (≈ 33.5 µM) | 25 (≈ 33.5 µM) | 1.6 (≈ 2.15 µM) | 6.3 (≈ 8.45 µM) | 3.1 (≈ 4.16 µM) | > 50 | 12.5 (≈ 16.8 µM) | 3.1 (≈ 4.16 µM) | > 50 |  |
| CC(=O)NCCC(=O)Nc1ccc(-c2ncc(C(=O)N[C@@H](C(=O)N[C@@H]3C(=O)N4C(C(=O)O)=C(COC(C)=O)CS[C@H]34)c3ccccc3)c(O)n2)cc1 [Example 3] | 25 (≈ 34.2 µM) | 12.5 (≈ 17.1 µM) | 50 (≈ 68.3 µM) | 12.5 (≈ 17.1 µM) | 12.5 (≈ 17.1 µM) | 6.3 (≈ 8.61 µM) | 12.5 (≈ 17.1 µM) | 6.3 (≈ 8.61 µM) | < 50 | 6.3 (≈ 8.61 µM) | 1.6 (≈ 2.19 µM) | 50 (≈ 68.3 µM) |  |
| CC(=O)N[C@@H](C)C(=O)Nc1ccc(-c2ncc(C(=O)N[C@@H](C(=O)N[C@@H]3C(=O)N4C(C(=O)O)=C(COC(C)=O)CS[C@H]34)c3ccccc3)c(O)n2)cc1 [Example 10, N-[2-[4-(N-Acetyl-L-alanylamino)phenyl]-4-hydroxy-5-pyrimidinylcarbonyl]-7-[D-2-amino-2-phenylacetamido]-3-acetoxy-methyl-3-cephem-4-carboxylic acid] | 25 (≈ 34.2 µM) | 12.5 (≈ 17.1 µM) | 50 (≈ 68.3 µM) | 25 (≈ 34.2 µM) | 25 (≈ 34.2 µM) | 6.3 (≈ 8.61 µM) | 12.5 (≈ 17.1 µM) | 6.3 (≈ 8.61 µM) | > 50 | 6.3 (≈ 8.61 µM) | 3.1 (≈ 4.24 µM) | 50 (≈ 68.3 µM) |  |
| CC(=O)N[C@H](C)C(=O)Nc1ccc(-c2ncc(C(=O)N[C@@H](C(=O)N[C@@H]3C(=O)N4C(C(=O)O)=C(COC(C)=O)CS[C@H]34)c3ccc(O)cc3)c(O)n2)cc1 [Example 11, N-[2-[4-(N-Acetyl-D-alanylamino)phenyl]-4-hydroxy-5-pyrimidinylcarbonyl]-7-[D-2-amino-2-(4-hydroxyphenyl)-acetamido]-3-acetoxymethyl-3-cephem-4-carboxylic acid] | 50 (≈ 66.9 µM) | 6.3 (≈ 8.43 µM) | 50 (≈ 66.9 µM) | 25 (≈ 33.4 µM) | 12.5 (≈ 16.7 µM) | 3.1 (≈ 4.15 µM) | 6.3 (≈ 8.43 µM) | 6.3 (≈ 8.43 µM) | > 50 | 25 (≈ 33.4 µM) | 6.3 (≈ 8.43 µM) | 50 (≈ 66.9 µM) |  |
| CC(=O)OCC1=C(C(=O)O)N2C(=O)C(NC(=O)[C@H](NC(=O)c3cnc(-c4ccc(NC(=O)[C@@H]5C[C@@H](O)CN5C(C)=O)cc4)nc3O)c3ccccc3)[C@H]2SC1 (stereo partly drawn) [Example 15, N-[2-[4-(N-Acetyl-L-hydroxyprolylamino)phenyl]-4-hydroxy-5-pyrimidinylcarbonyl]-7-[D-2-amino-2-phenylacetamido]-3-acetoxymethyl-3-cephem-4-carboxylic acid] |  |  |  |  |  |  |  |  |  |  |  |  | Minimal Inhibitory Concentration (E. coli Brig): 50 µg/mL; Minimal Inhibitory Concentration (E. coli Vogel): 6.3 µg/mL; Minimal Inhibitory Concentration (Entero. cloacae): > 50 µg/mL; Minimal Inhibitory Concentration (Klebs. pneu.): 12.5 µg/mL; Minimal Inhibitory Concentration (Prot. vulg.): 50 µg/mL; Minimal Inhibitory Concentration (Pseudomonas #28): 3.1 µg/mL; Minimal Inhibitory Concentration (Pseudomonas BRK 12-4-4): 12.5 µg/mL; Minimal Inhibitory Concentration (Pseudomonas UI 18): 3.1 µg/mL; Minimal Inhibitory Concentration (Serr. marces.): > 50 µg/mL; Minimal Inhibitory Concentration (Staph. aureus S18733): 6.3 µg/mL; Minimal Inhibitory Concentration (Staph. aureus UC-76): 1.6 µg/mL; Minimal Inhibitory Concentration (Strep. fec.): 25 µg/mL |
